Patent US20260109684A1, “QUINOLINE COMPOUNDS AS MODULATORS OF RAGE ACTIVITY AND USES THEREOF” (NEW YORK UNIVERSITY, priority 2022, published 2026)

Assays:
ctRAGE = molecular target: T1, ctRAGE (Homo sapiens, UniProt Q15109); assay: Fluorescence binding titration assay (native tryptophan fluorescence); conditions: 20 nM ctRAGE, 10 mM phosphate buffer pH 7.0, 5% DMSO
T1 construct: The cytoplasmic domain of RAGE, C terminal RAGE or ctRAGE (RAGE tail)
T1 sequence (Q15109 364-404 limits assumed): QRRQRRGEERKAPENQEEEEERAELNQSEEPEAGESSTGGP
Description: Native tryptophan fluorescence experiments were conducted using a Horiba Jobin Yvon Fluorolog spectrofluorometer. 1 mM of a compound was dissolved in 10 mM phosphate buffer [pH 7.0] and 50% DMSO. 20 nM ctRAGE solution was individually titrated from 0.1 nM-100 μM with the compounds in 100 μL of 10 mM phosphate buffer [pH 7.0] and 5% DMSO. The excitation and emission wavelengths were 280 nm and 352 nm, respectively. Dissociation constants, Kd, were estimated from the changes in peak fluorescence intensities as a function of the free compound concentration by using Prism 6 software (GraphPad). Data were fit to the equation, (F−F0)/Fmax=[compound]/(Kd+[compound]) where F is the fluorescence intensity at a given compound concentration, F0 is the fluorescence intensity of the blank, and Fmax is the maximum fluorescence intensity.

[1] = test system: Murine primary aortic smooth muscle cells (SMC); assay: Murine primary aortic smooth muscle cell (SMC) migration, wounding assay; format: cell-based, mice; conditions: Mus musculus; inhibition of migration; compounds incubated 1.5 h, then CML-AGE (10 μg/ml) or PDGF-BB (10 ng/ml) for 4 h
Description: Murine SMCs were cultured from the aortas of 10-week old male mice as described in M. B. Manigrasso, J. Pan, V. Rai, J. Zhang, S. Reverdatto, N. Quadri, R. J. DeVita, R. Ramasamy, A. Shekhtman, A. M. Schmidt, Small Molecule Inhibition of Ligand-Stimulated RAGE-DIAPH1 Signal Transduction. Scientific reports 6, 22450 (2016). Wild-type murine aortic SMCs were isolated and used between passages 8 to 12. Migration in response to the RAGE ligand CML-AGE (CML, 10 μg/ml) or a general effector, not a RAGE ligand, PDGF-BB, 10 ng/ml (R&D systems) was assessed with a wounding assay as also described in M. B. Manigrasso, J. Pan, V. Rai, J. Zhang, S. Reverdatto, N. Quadri, R. J. DeVita, R. Ramasamy, A. Shekhtman, A. M. Schmidt, Small Molecule Inhibition of Ligand-Stimulated RAGE-DIAPH1 Signal Transduction. Scientific reports 6, 22450 (2016). Briefly, cells were grown to confluence in 24-well plates and starved overnight. The following morning, serum free media (SFM) was removed and compounds were added per dose response. Immediately following the addition of compounds, the monolayer was wounded using a p10 pipette tip. The compounds were allowed to incubate for 1.5 h. Following this incubation, all compounds were removed and fresh media containing RAGE ligand, CML-AGE (10 μg/ml), or general effector, PDGF-BB (10 ng/ml), was added for 4 h. Cells were maintained at 37° C. and 5% CO2. Images were taken at 4 h. Each image was measured, and an area ingrowth of effective migrating cells was calculated. Results are shown in FIGS. 12-20 and Table 2 below.

ob ob mice = assay: Wound healing of full thickness excisional wounds in ob ob mice; format: in vivo; conditions: male and female ob ob mice; 5 mg/kg twice daily topical, day 3 through day 10; days 14 and 21 post-surgery
Description: RAGE 406R was tested in male and female ob ob mice (model of obesity and type 2 diabetes) for potential benefits in wound healing. Full thickness excisional wounds were created on the backs of 8 week old ob ob mice, as described in Manigrasso et al., “Small-molecule antagonism of the interaction of the RAGE cytoplasmic domain with DIAPH1 reduces diabetic complications in mice,” Sci Transl Med. 13 (621):eabf7084 (2021). Beginning on day 3 after the surgery, mice received RAGE 406R (5 mg/kg) twice daily by topical administration under the Tegaderm through day 10 post-operatively. The wounds were photographed on days 0, 7, 14, and 21 and the % wound closure (compared to baseline) was calculated for each mouse. The Mean+/−Standard Error of the Mean is shown in FIGS. 23A-B along with representative images (FIGS. 23C-D).

SMILES | Kd (ctRAGE) | IC50 [1] | % wound closure compared to vehicle-treated animals (ob ob mice)
N#Cc1ccc2c(CN3CCOCC3)cc(-c3ccc(C4CCC(=O)N4)cc3)nc2c1 (racemic) [RAGE 406] | 3 nM | 28 nM | 
N#Cc1ccc2c(CN3CCOCC3)cc(-c3ccc(CN)cc3)nc2c1 [RAGE 286, 2-(4-(aminomethyl)phenyl)-4-(morpholinomethyl)quinoline-7-carbonitrile] | 20 nM | 270 nM | 
CC(=O)NCc1ccc(-c2cc(C(=O)N3CCOCC3)c3ccc(C#N)cc3n2)cc1 [RAGE 289, N-(4-(7-cyano-4-(morpholine-4-carbonyl)quinolin-2-yl)benzyl) acetamide] | 3 nM | 18 nM | 
N#Cc1ccc2c(CN3CCOCC3)cc(-c3ccc(CC(N)=O)cc3)nc2c1 [RAGE 291] | 12 nM |  | 
CN(C)Cc1ccc(-c2cc(CN3CCOCC3)c3ccc(C#N)cc3n2)cc1 [RAGE 299] | 8 nM | 93 nM | 
N#Cc1ccc2c(CN3CCOCC3)cc(-c3ccc(CN4CCCC4)cc3)nc2c1 [RAGE 401] |  | 905 nM | 
N#Cc1ccc2c(CN3CCOCC3)cc(-c3ccc(CCN)cc3)nc2c1 [RAGE 402, 2-(4-(2-aminoethyl)phenyl)-4-(morpholinomethyl)quinoline-7-carbonitrile] | 3 nM | 136 nM | 
N#Cc1ccc2c(C(=O)N3CCOCC3)cc(-c3ccc(C4CCCN4)cc3)nc2c1 (centres unmarked) [RAGE 407] | 2 nM | 153 nM | 

The remaining compounds from weak to strong by Kd (ctRAGE), led by results:

Kd (ctRAGE) | IC50 [1] | SMILES | % wound closure compared to vehicle-treated animals (ob ob mice)
2 nM | 1160 nM | N#Cc1ccc2c(CN3CCOCC3)cc(-c3ccc([C@@H]4CCC(=O)N4)cc3)nc2c1 [RAGE 406S] | 
1 nM | 2.6 nM | N#Cc1ccc2c(CN3CCOCC3)cc(-c3ccc(C(N)=O)cc3)nc2c1 [RAGE 283] | 
1 nM | 6 nM | N#Cc1ccc2c(CN3CCOCC3)cc(-c3ccc(C(=N)N)cc3)nc2c1 [RAGE 290] | 
0.6 nM | 1 nM | N#Cc1ccc2c(CN3CCOCC3)cc(-c3ccc([C@H]4CCC(=O)N4)cc3)nc2c1 [RAGE 406R] | significantly higher wound closure
